In one test the test system is guinea pig ileum (GPI). As to the kind of experiment: Guinea pig ileum (GPI) bioassay: inhibition of electrically evoked contractions. Type of test: cell-based. To be noted: normalized with [Leu5]enkephalin standard, effect primarily μ-mediated. As for the experimental part:
(§1) Bioassays based on inhibition of electrically evoked contractions of the mouse vas deferens (MVD) and of the guinea pig ileum (GPI) were performed. In the GPI assay the opioid effect is primarily mediated by μ opioid receptors, whereas in the MVD assay the inhibition of the contractions is mostly due to interaction with δ opioid receptors.
(§2) The GPI and MVD bioassays were carried out as reported in P. W. Schiller et al., Biochem. Biophys. Res. Commun. 85, 1332-1338 (1978) and J. DiMaio et al., J. Med. Chem. 25, 1432-1438 (1982). A log-dose response curve was determined with [Leu^5 ]enkephalin as standard for each ileum and vas preparation, and IC50 values of the compounds being tested were normalized according to A. A. Waterfield et al., Eur. J. Pharmacol. 58, 11-18 (1979).

A further test deals with mouse vas deferens (MVD). As to the kind of experiment: Mouse vas deferens (MVD) bioassay: inhibition of electrically evoked contractions. The test is classed as cell-based. To be noted: for IC50 / MVD IC50: inhibition of electrically evoked contractions, normalized with [Leu5]enkephalin standard, effect mostly δ-mediated; for GPI/MVD IC50 ratio: ratio of GPI IC50 to MVD IC50; for δ opioid agonist character (full / partial): conclusion from MVD and GPI assays. As for the experimental part:
as §1, §2

The target in a further test is T1, μ opioid receptor (Rattus norvegicus, UniProt P33535).
T1 construct: Male Sprague-Dawley rats (300-350 g) from the Canadian Breeding Laboratories were decapitated and after removal of the cerebellum the brains were homogenized; from tissue; host or cells: rat brain (without cerebellum) membranes, male Sprague-Dawley
T1 sequence (P33535 whole entry): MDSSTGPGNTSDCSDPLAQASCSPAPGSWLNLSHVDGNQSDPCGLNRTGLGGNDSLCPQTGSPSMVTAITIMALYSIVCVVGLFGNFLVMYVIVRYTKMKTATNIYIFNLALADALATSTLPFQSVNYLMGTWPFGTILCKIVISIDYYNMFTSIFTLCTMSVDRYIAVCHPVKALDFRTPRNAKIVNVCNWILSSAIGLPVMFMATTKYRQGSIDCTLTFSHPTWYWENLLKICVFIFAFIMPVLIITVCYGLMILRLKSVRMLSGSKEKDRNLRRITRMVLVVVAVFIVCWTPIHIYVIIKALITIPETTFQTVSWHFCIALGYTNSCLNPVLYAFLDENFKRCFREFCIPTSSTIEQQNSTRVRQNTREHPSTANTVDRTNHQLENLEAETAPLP
The experiment in a line: μ opioid receptor binding assay, displacement of [3H]DAMGO from rat brain membranes. To be noted: [3H]DAMGO 0.7 nM, Cheng-Prusoff. As for the experimental part: (§3) μ and δ opioid receptor binding constants (Ki^μ,Ki^δ) of the compounds were determrined by displacement of relatively selective μ and δ radioligands from binding sites in rat brain membrane preparations calculated from the measured IC50 values on the basis of the equation by Cheng and Prusoff, (Y. C. Cheng and W. H. Prusoff Biochem. Pharmnacol. 22, 3099-3102 (1973)).
(§4) The μ-, δ- and κ-opioid receptor affinities of all new analogs were determined in binding assays based on displacement of μ-, δ- and κ-selective radioligands from rat brain membrane binding sites. In the case of κ-ligands guinea pig brain homogenates were used, since the relative proportion of κ-binding sites is higher in guinea pig brain than in rat brain. The experimental procedure being used in our laboratory represents a modified version of the binding assay described by Pasternak et al. (Mol. Pharnacol. 11, 340-351 (1975)). Male Sprague-Dawley rats (300-350 g) from the Canadian Breeding Laboratories were decapitated and after removal of the cerebellum the brains were homogenized in 30 volumes of ice-cold standard buffer (50 mnM Tris HCl , pH 7.7). After centrifugation at 30,000×g for 30 min at 4° C. the membranes were reconstituted in the original volume of standard buffer and incubated for 30 min at 37° C. (to release bound endogenous ligands). Subsequent centrifugation and resuspension of the pellet in the initial volume of fresh standard buffer yielded the final membrane suspension. Aliquots (2 ml) of the membrane preparations were incubated for 1-2 h at 25° C. with 1 ml standard buffer containing the peptide to be tested and one of the following radioligands at the final concentration indicated: [^3 H]DAMGO, μ-selective, 0.7 nM; [^3 H]DSLET, μ-selective, 1.0 nM; and [^3 H]U69,563, κ-selective, 0.5 nM. The incubation was terminated by filtration through Whatman GF/B filters under vacuum at 4° C. Following two washings with 5 ml portions of ice-cold standard buffer the filters were transferred to scintillation vials and treated with 1 ml Protosol (New England Nuclear) for 30 min prior to addition of 0.5 ml acetic acid and 10 ml Aquasol (New England Nuclear). After shaking for 30 min the vials were counted at an efficiency of 40-45%. All experiments were performed in duplicate and repeated at least three times. Specific binding of each of the three radioligands was defined by performing incubations in the presence of cold DAMGO, DSLET and U69,563, respectively, at a concentration of 1 micromolar. Values of half-maximal inhibition (IC50) of specific binding were obtained graphically from semilogarithmic plots. From the measured IC50-values, binding inhibition constants (Ki) were calculated based on Cheng and Prusoff's equation (Biochem. Pharmacol. 22, 3099-3102 (1973)). Ratios of the Ki -values determined in the μ-, δ- and κ-representative binding assays are a measure of the receptor selectivity of the compound under investigation (e.g. Ki^μ /Ki^μ indicates the selectivity for δ-receptors versus μ-receptors).
On the technique in general: Displacement assays read how much labelled ligand stays bound in the presence of the test substance.

For another test, the target named is T2, δ opioid receptor (Rattus norvegicus, UniProt P33533).
T2 construct: Male Sprague-Dawley rats (300-350 g) from the Canadian Breeding Laboratories were decapitated and after removal of the cerebellum the brains were homogenized; from tissue; host or cells: rat brain (without cerebellum) membranes, male Sprague-Dawley
T2 sequence (P33533 whole entry): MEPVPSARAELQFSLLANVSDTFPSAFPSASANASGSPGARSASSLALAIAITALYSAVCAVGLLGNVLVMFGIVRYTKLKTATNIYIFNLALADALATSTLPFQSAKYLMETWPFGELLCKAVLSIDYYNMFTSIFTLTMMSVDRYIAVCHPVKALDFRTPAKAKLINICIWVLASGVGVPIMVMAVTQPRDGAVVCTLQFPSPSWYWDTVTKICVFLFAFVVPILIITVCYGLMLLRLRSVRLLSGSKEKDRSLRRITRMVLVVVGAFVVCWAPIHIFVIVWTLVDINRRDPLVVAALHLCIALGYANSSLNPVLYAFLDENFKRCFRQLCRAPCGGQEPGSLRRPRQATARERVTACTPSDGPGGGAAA
As to the kind of experiment: δ opioid receptor binding assay, displacement of [3H]DSLET from rat brain membranes. The note with it: for Ki: rat brain membranes, [3H]DSLET 1.0 nM, Cheng-Prusoff; for Ki^μ/Ki^δ: δ versus μ receptor selectivity. As for the experimental part:
as §3
as §4, with “[…];” for “[^3 H]DSLET, μ-selective, 1.0 nM;”

By IC50 is commonly meant the concentration that gives 50% inhibition. A higher IC50 goes with weaker potency in that assay. Usually Ki stands for a measure of affinity in units of concentration, obtained from inhibition or displacement. In turn, `CCOC(=O)C(CNC(=O)[C@@H]1Cc2ccccc2CN1C(=O)[C@@H](N)Cc1ccc(O)cc1)c1ccccc1` (single isomer, unassigned) [Example 15] displayed an IC50 in the test with guinea pig ileum (GPI) of over 10000 nM. In the test on mouse vas deferens (MVD), it took 1.28 ± 0.18 nM to reach half-maximal inhibition (IC50) and the “GPI/MVD IC50 ratio” value is over 7810. Besides, at μ opioid receptor, the Ki came to 886 ± 172 nM. Further, on δ opioid receptor, the inhibition constant (Ki) worked out at 0.569 ± 0.08 nM and the “Ki^μ/Ki^δ” value worked out at 1560.

The molecule `CCOC(=O)C(CNC(=O)[C@@H]1Cc2ccccc2CN1C(=O)[C@@H](N)Cc1ccc(O)cc1)c1ccccc1` (single isomer, unassigned) [Example 16] registered an IC50 in the test with guinea pig ileum (GPI) of over 10000 nM. Also, in the test with mouse vas deferens (MVD), the IC50 came to 8.64 ± 1.31 nM and the “GPI/MVD IC50 ratio” value is over 1160. On μ opioid receptor, this molecule came in with a Ki of 153 ± 5 nM. At δ opioid receptor, the Ki was determined as 3.03 ± 0.66 nM and the “Ki^μ/Ki^δ” value is on record as 50.5.

On to `NC(=O)C(CNC(=O)[C@@H]1Cc2ccccc2CN1C(=O)[C@@H](N)Cc1ccc(O)cc1)c1ccccc1` (single isomer, unassigned) [Example 17], for which, in the test on guinea pig ileum (GPI), the concentration for half-maximal inhibition (IC50) amounted to 2140 ± 470 nM. Moreover, in the test on mouse vas deferens (MVD), the IC50 was found to be 34 ± 2.9 nM and the “GPI/MVD IC50 ratio” value is given as 62.9. Also, the Ki on μ opioid receptor was found to be 73.7 ± 0.6 nM. Besides, at δ opioid receptor, the Ki is 21.5 ± 4.2 nM and the “Ki^μ/Ki^δ” value was 3.43.

`NC(=O)C(CNC(=O)[C@@H]1Cc2ccccc2CN1C(=O)[C@@H](N)Cc1ccc(O)cc1)c1ccccc1` (single isomer, unassigned) [Example 18] yielded an IC50 with guinea pig ileum (GPI) of over 10000 nM. Besides, in the test on mouse vas deferens (MVD), the “δ opioid agonist character (full / partial)” value was “partial δ agonists” and the “MVD IC50” value is “partial agonist”. The inhibition constant (Ki) at μ opioid receptor was 191 ± 19 nM. In addition, at δ opioid receptor, the Ki is 22.8 ± 2.5 nM and the “Ki^μ/Ki^δ” value turned out to be 8.38.

The molecule `NC(Cc1ccc(O)cc1)C(=O)N1Cc2ccccc2CC1C(=O)NC1CC1c1ccccc1` (single isomer, unassigned) [Example 21] showed a half-inhibitory concentration (IC50) in the test on guinea pig ileum (GPI) of 1600 ± 500 nM. In addition, in the test with mouse vas deferens (MVD), the “δ opioid agonist character (full / partial)” value was “partial δ agonists” and the “MVD IC50” value was “partial agonist”. Affinity at μ opioid receptor was put at a Ki of 38 ± 11.2 nM. At δ opioid receptor, the Ki was found to be 4.13 ± 0.27 nM and the “Ki^μ/Ki^δ” value is 9.20.

With `NC(Cc1ccc(O)cc1)C(=O)N1Cc2ccccc2CC1C(=O)NC1CC1c1ccccc1` (single isomer, unassigned) [Example 22], the IC50 with guinea pig ileum (GPI) came to 518 ± 147 nM. In the test on mouse vas deferens (MVD), the IC50 turned out to be 7.31 ± 2.3 nM and the “GPI/MVD IC50 ratio” value stood at 70.9. The molecule further gave a Ki on μ opioid receptor of 11.5 ± 1.1 nM. Further, on δ opioid receptor, the Ki was 1.36 ± 0.15 nM and the “Ki^μ/Ki^δ” value worked out at 8.46.

In the test on guinea pig ileum (GPI), `N[C@@H](Cc1ccc(O)cc1)C(=O)N1Cc2ccccc2C[C@H]1C(=O)NCC(CO)c1ccccc1` (single isomer, unassigned) [Example 27] came in with an IC50 of 526 ± 51 nM. Also, in the test with mouse vas deferens (MVD), 13.6 ± 2.2 nM corresponded to half-maximal inhibition (IC50) and the “GPI/MVD IC50 ratio” value stood at 38.7. In addition, the Ki at μ opioid receptor amounted to 70.3 ± 2.3 nM. Further, at δ opioid receptor, the Ki stood at 1.26 ± 0.11 nM and the “Ki^μ/Ki^δ” value was 55.8.

Turning to `N[C@@H](Cc1ccc(O)cc1)C(=O)N1Cc2ccccc2C[C@H]1C(=O)NCC(CO)c1ccccc1` (single isomer, unassigned) [Example 28], the IC50 in the test with guinea pig ileum (GPI) was over 10000 nM. In the test on mouse vas deferens (MVD), the IC50 was determined as 92.6 ± 6 nM and the “GPI/MVD IC50 ratio” value is over 108. For the same molecule, the Ki at μ opioid receptor came out at 242 ± 20 nM. Moreover, on δ opioid receptor, the inhibition constant Ki is 7.8 ± 2.8 nM and the “Ki^μ/Ki^δ” value is given as 31.0.

As for `CCOC(=O)C(CNC(=O)[C@@H]1Cc2ccccc2CN1C(=O)[C@@H](N)Cc1ccc(O)cc1C)c1ccccc1` (single isomer, unassigned) [Example 30], the half-inhibitory concentration (IC50) in the test on guinea pig ileum (GPI) turned out to be 826 ± 183 nM. Further, in the test with mouse vas deferens (MVD), the IC50 worked out at 1.62 ± 0.12 nM and the “GPI/MVD IC50 ratio” value came to 510. On μ opioid receptor, this molecule displayed a Ki of 164 ± 11 nM. At δ opioid receptor, the Ki was 1.63 ± 0.27 nM and the “Ki^μ/Ki^δ” value came out at 101.

For `CCOC(=O)C(CNC(=O)[C@@H]1Cc2ccccc2CN1C(=O)[C@@H](N)Cc1ccc(O)cc1C)c1ccccc1` (single isomer, unassigned) [Example 31], in the test on guinea pig ileum (GPI), the IC50 was found to be 869 ± 209 nM. Moreover, in the test on mouse vas deferens (MVD), the half-inhibitory concentration (IC50) came to 2.24 ± 0.33 nM and the “GPI/MVD IC50 ratio” value is listed as 388. For the same molecule, the affinity at μ opioid receptor corresponds to a Ki of 79.7 ± 2.3 nM. Moreover, on δ opioid receptor, the Ki was determined as 1.22 ± 0.04 nM and the “Ki^μ/Ki^δ” value came out at 65.3.

In the test with guinea pig ileum (GPI), `NC(Cc1ccc(O)cc1)C(=O)N1Cc2ccccc2CC1C(=O)NCC(c1ccccc1)c1ccccc1` (stereo not drawn) [Example 1, H-Tyr-Tic-NH--CH2 --CH--(Ph)2] had an IC50 of 3630 ± 470 nM. In the test with mouse vas deferens (MVD), the IC50 stood at 3.77 ± 1.05 nM and the “GPI/MVD IC50 ratio” value was 963. At μ opioid receptor, this molecule registered a Ki of 28.8 ± 4.2 nM. Besides, on δ opioid receptor, the Ki turned out to be 0.981 ± 0.038 nM and the “Ki^μ/Ki^δ” value is given as 29.4.

Regarding `N[C@@H](Cc1ccc(O)cc1)C(=O)N1Cc2ccccc2C[C@H]1C(=O)NCCc1ccccc1Br` [Example 5], the IC50 in the test on guinea pig ileum (GPI) was found to be 613 ± 26 nM; in the test on mouse vas deferens (MVD), 13.9 ± 1.9 nM. In the test with mouse vas deferens (MVD), the “GPI/MVD IC50 ratio” value turned out to be 44.1. Besides, the values for the Ki at μ opioid receptor and at δ opioid receptor were 23.3 ± 7.7 nM and 1.24 ± 0.27 nM, respectively. Also, at δ opioid receptor, the “Ki^μ/Ki^δ” value was determined as 18.8.

`Cc1ccccc1CCNC(=O)[C@@H]1Cc2ccccc2CN1C(=O)[C@@H](N)Cc1ccc(O)cc1` [Example 6] returned an IC50 in the test with guinea pig ileum (GPI) of 759 ± 152 nM. For the same molecule, in the test on mouse vas deferens (MVD), the half-inhibitory concentration (IC50) stood at 10.1 ± 1.2 nM and the “GPI/MVD IC50 ratio” value came out at 75.1. Further, at μ opioid receptor, the affinity corresponds to a Ki of 38.7 ± 8.9 nM. For the same molecule, on δ opioid receptor, affinity was put at a Ki of 1.75 ± 0.1 nM and the “Ki^μ/Ki^δ” value was 22.1.

Turning to `N[C@@H](Cc1ccc(O)cc1)C(=O)N1Cc2ccccc2C[C@H]1C(=O)NCCc1ccccc1-c1ccccc1` [Example 7], the IC50 in the test on guinea pig ileum (GPI) is over 10000 nM. For the same molecule, in the test with mouse vas deferens (MVD), half-maximal inhibition (IC50) was put at 418 ± 55 nM and the “GPI/MVD IC50 ratio” value is reported as over 23.9. Further, the Ki on μ opioid receptor was found to be 73.5 ± 7.1 nM. For the same molecule, on δ opioid receptor, affinity was put at a Ki of 4.76 ± 1.7 nM and the “Ki^μ/Ki^δ” value is on record as 15.4.

Values taken from patent publication US6150335A, “Tic-containing opioid dipeptide derivatives useful as analgesics” (Astra AB, priority 1996, dated 2000).
